Assay results from US20240025886A1, “INHIBITORS OF IGF2BP1-RNA BINDING” (YISSUM RESEARCH DEVELOPMENT COMPANY OF THE HEBREW …, priority 2020, published 2024).
“Also recorded” adds a separate entry of the source.

How the values were obtained:
[1] = test system: control luciferase in RKO cells; assay: Control (wild type) luciferase in RKO cells; format: cell-based; settings: 50 mM 7773
Experimental: (§1) The RKO cells were seeded in DMEM with 10% calf serum 24 hrs prior to the transfection. Transfection was done using Lipofectamine 2000 with reporter plasmids and Renilla-luciferase expressing vector (as internal control). After 24 hrs, cells were lysed using passive lysis buffer (Promega catalog #E1941). The lysates were cleared by centrifugation and its […] volume was mixed with […] of luciferase substrate solution for luminescence recording which was followed by addition of […] of Stop-glo solution (Promega catalog #E1910) with an additional luminescence reading. Both readings were detected by using GloMax 20/20 Luminometer (Promega), and the final value for each sample was the ratio of their two respective readings. To test the effects of 7773, transfected cells with reporter plasmids were washed with PBS after 24 hrs of transfection and incubated with medium containing 7773.

G9a = G9a (Homo sapiens, UniProt Q96KQ7); assay: G9a fluorescence polarization enzymatic activity assay; format: biochemical; settings: increasing concentrations
Experimental: For the small molecule screen, compounds were obtained from the collection maintained at the Grand Israel National Center for Personalized Medicine, consisting of molecules purchased from commercial vendors. Labelled RNA (10 nM) was incubated with recombinant Igf2bp1 protein (400 nM) in FAM-RNA buffer (10 mM Tris pH 8.0, 75 mM KCl, 0.5 mM EDTA, 1 mM DTT, 0.0188 U/μL RNAsin, 0.0005 μg/mL heparin, 0.0001 μg/μL tRNA, 0.01% Triton X-100, 3 mM MgCl2, 0.05% IGEPAL) at room temperature for 15 min. […] of this reaction mix was aliquoted with GNF WDII (USA) into wells of 1536 well plates, with a final concentration of […] compound or DMSO. The plates were spun down and read in a BMG Pherastar FS (Germany) plate reader plate reader, in FP mode with a 485/520/520 polarization filter, calibrated to 35 mP for free fluorescein with similar total intensity as experimental samples. The G9a FP assay was based on using an S-adenosylhomocysteine (SAH)-FITC probe and antibody to SAH to produce a high FP signal when the antibody binds to SAH-FITC. Unlabeled SAH produced by incubation of G9a enzyme with S-adenosylmethionine (SAM) and peptide substrate competes for the antibody and results in a low FP signal. 100% activity means that G9a is fully active and therefore a low FP signal is observed (SAH is produced).

La = La (Homo sapiens, UniProt P05455); assay: MST binding to control RNA binding protein La
H1299 cells = assay: Growth in soft agar, H1299 cells; format: cell-based, human; design: dose or concentration left out as unconfirmed; settings: H1299, 7773
Experimental: Cells were grown for 12 hours in 6 well plates prior to incubation with the compound or DMSO for an additional 48 hours, 2000 cells were suspended in 0.3% agar-complete medium and then seeded in triplicates onto a 0.6% agar-complete medium base in a 6 well plate. After one week, the colonies were fed with 0.3% agar-complete medium, and after 2 additional weeks, imaged and quantified.

Igf2bp1 = molecular target: T1, Igf2bp1 (Homo sapiens, UniProt Q9NZI8); assay: Microscale thermophoresis (MST) binding to full-length Igf2bp1; settings: full-length protein, unit printed μM
T1 construct: Recombinant full-length Igf2bp1 protein; made in house; host or cells: E. coli BL21(DE3)
Experimental: (§2) Recombinant full-length Igf2bp1 protein was labelled with RED-tris-NTA dye using a Monolith NT His-Tag Labelling Kit (NanoTemper) while RRM12, KH12 and KH34 di-domain peptides were labelled using the Protein Labeling Kit RED NHS 2nd generation (NanoTemper). Labelled proteins were spun at 15,000 g for 5 min to eliminate aggregates. All samples were 2× labelled protein mix of Igf2bp1 (200 nM) in PBST and were combined (1:1) with serial dilutions of compound or Kras6 RNA in binding buffer (10 mMTris pH=7.5, 100 mM NaCl, 0.1 mM EDTA, 0.06% IPEGAL, 0.02 μg/μL tRNA, 2 mM DTT, 0.1 μg/μL heparin) in final volume of 20 μL, room temperature for 15 min. Samples were then loaded into standard capillaries (NanoTemper) and read in the Monolith NT.115 scanner (NanoTemper) using the red filter with reading conditions of 95% LED power and 40% MST power, 5 sec fluorescence before, 30 sec MST on, 5 sec fluorescence after and 25 sec delay between samples. Results were analyzed using the MO Control software (NanoTemper) for curve fitting to KD.

[2] = test system: LKR-M cells transfected with full length human Igf2bp1-GFP; assay: Wound healing assay, LKR-M cells expressing human Igf2bp1-GFP; format: cell-based, mouse; design: dose or concentration left out as unconfirmed; settings: 7773 vs DMSO
Experimental: Cells were seeded in 96 IncuCyte® ImageLock plates (20×10^3 cells per well) for 24 hours, to a near confluency of 95%, before the addition of increasing concentrations of compound. After a further 24 hours, wells were scratched using the IncuCyte® 96-well WoundMaker Tool, and the cells cultured for an additional 48 hours using the IncuCyte® S3 Live-Cell Analysis System (Essen BioScience). The plate was imaged at increments of 120 minutes for a period of 48 hours, and then analyzed for relative wound healing.

Igf2bp1 KH12 di-domain = molecular target: T2, Igf2bp1 KH12 di-domain (Homo sapiens, UniProt Q9NZI8); assay: MST binding to Igf2bp1 di-domain KH12
T2 construct: KH12 (V194-N369); 6xHis/GST (N, cleaved yes); made in house; host or cells: E. coli BL21(DE3)
Experimental: as §2

La binding to Bcl2 RNA = La binding to Bcl2 RNA (Homo sapiens, UniProt P05455); assay: FP counter assay, La binding to Bcl2 RNA
[3] = test system: Igf2bp1 split-luciferase reporter in RKO cells; assay: Split-luciferase assay of Igf2bp1 dimerization in RKO cells; format: cell-based; design: dose or concentration left out as unconfirmed
Experimental: Vectors expressing different fragments of split luciferase reporters with flexible linker were procured from Addgene (catalog #58786, 58787, 58788 and 58789). The vectors were digested with EcoRI and XhoI. EcoRI and XhoI restriction enzyme sites were added to 5′ and 3′ ends of the coding region of IGF2BP1 respectively using PCR. The inventors constructed four split luciferase reporter vectors by cloning IGF2BP1 in different orientation with the luciferase fragments (FIG. 8B). Primers used for the amplification of IGF2BP1 were: […]
as §1, with “To test the effects of 7773, transfected cells with reporter plasmids were washed with PBS after 24 hrs of transfection and incubated with medium containing 7773.” left out

Chain of G9a (Q96KQ7 whole entry, species assumed): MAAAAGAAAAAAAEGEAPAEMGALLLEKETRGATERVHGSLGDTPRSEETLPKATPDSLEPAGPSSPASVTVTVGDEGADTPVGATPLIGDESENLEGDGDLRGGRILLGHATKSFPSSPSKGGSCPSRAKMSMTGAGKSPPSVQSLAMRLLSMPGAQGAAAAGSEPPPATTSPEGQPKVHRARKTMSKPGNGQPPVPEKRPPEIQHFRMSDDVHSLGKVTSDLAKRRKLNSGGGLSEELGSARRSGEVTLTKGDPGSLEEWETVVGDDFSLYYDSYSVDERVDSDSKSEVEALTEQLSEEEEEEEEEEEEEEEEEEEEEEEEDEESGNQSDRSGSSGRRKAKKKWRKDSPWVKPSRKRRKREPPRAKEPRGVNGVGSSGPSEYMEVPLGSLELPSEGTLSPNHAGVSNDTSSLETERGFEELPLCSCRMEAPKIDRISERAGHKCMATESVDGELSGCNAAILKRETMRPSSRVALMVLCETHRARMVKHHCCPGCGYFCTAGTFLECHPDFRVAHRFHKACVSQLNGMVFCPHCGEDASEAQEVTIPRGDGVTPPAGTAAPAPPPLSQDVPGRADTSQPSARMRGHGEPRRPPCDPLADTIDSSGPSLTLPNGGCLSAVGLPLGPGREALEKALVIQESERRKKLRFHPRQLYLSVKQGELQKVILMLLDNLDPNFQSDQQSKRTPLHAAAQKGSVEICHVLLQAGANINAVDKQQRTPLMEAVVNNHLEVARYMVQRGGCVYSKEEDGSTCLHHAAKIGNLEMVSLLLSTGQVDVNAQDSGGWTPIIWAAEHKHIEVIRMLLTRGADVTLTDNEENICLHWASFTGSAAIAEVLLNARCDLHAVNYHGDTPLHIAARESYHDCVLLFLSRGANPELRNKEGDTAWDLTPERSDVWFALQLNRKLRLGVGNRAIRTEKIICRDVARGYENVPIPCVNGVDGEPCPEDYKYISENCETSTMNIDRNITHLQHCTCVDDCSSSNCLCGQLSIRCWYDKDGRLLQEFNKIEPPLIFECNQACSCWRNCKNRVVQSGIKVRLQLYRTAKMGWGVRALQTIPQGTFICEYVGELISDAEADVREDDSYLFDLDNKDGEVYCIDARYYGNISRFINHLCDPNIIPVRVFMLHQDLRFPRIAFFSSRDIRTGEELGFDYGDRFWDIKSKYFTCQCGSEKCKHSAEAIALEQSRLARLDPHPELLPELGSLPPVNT
Chain of La binding to Bcl2 RNA (P05455 whole entry): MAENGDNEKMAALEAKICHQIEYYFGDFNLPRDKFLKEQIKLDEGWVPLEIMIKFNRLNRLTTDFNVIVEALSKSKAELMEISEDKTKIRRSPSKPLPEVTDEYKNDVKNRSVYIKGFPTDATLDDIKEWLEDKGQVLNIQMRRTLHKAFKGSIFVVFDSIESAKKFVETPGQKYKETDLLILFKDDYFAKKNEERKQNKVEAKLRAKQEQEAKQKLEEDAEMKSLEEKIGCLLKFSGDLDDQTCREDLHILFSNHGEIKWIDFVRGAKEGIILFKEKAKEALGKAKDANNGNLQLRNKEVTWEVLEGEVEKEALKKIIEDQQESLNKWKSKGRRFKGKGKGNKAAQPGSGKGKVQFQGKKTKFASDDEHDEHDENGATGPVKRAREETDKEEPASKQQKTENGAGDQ
T2 sequence (Q9NZI8 194-369): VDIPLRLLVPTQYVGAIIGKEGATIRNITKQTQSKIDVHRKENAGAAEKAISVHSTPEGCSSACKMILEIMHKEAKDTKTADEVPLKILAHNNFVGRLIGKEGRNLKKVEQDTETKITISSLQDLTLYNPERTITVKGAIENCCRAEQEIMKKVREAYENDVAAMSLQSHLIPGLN
T1 sequence (Q9NZI8 whole entry): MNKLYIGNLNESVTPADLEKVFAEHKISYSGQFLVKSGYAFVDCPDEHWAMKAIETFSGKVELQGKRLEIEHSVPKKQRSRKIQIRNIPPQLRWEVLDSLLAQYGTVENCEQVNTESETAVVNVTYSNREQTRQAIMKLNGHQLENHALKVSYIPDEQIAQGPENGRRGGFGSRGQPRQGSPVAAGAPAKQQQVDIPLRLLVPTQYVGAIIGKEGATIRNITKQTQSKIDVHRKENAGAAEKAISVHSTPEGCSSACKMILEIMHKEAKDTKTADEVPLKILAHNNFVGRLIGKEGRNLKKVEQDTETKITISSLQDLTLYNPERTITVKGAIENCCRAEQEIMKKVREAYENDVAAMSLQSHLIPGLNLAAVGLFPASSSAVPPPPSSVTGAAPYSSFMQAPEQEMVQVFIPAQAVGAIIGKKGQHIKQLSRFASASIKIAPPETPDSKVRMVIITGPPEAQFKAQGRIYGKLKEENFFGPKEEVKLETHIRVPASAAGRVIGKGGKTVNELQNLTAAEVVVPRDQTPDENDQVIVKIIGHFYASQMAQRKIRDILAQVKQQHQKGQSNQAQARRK
Chain of La (P05455 whole entry): as the sequence (P05455 whole entry) above

O=C(c1ccc(Cn2cnnn2)cc1)N1CCCC(Nc2ccc3c(c2)OCO3)C1 (stereo not shown) [Compound 7773]
Activity of wild type luciferase [1]: did not affect | Inhibition of G9a enzymatic activity (G9a): almost no effect; also recorded: does not inhibit | Binding to La (MST) (La): no binding | Ability to form colonies in soft agar (H1299 cells): dramatically inhibited | Kd (Igf2bp1): 17 µM | Inhibition of Igf2bp1-GFP enhanced wound healing [2]: significantly inhibited | Binding to KH12 (MST) (Igf2bp1 KH12 di-domain): no binding | Effect on control RBP (La) binding to its target (Bcl2 RNA) (La binding to Bcl2 RNA; FP): almost no effect | IC50 (La binding to Bcl2 RNA; FP control, n=3, read-out: IC50 for inhibition of La binding to Bcl2 RNA): > 100 µM | Split-luciferase luminescence [3]: significantly reduced luminescence
